Assay results published in US20030054053A1, “Methods and compositions for inhibiting the proliferation of prostate cancer cells” (priority 2001, published 2003).

Assays:
Type in all cases: cell-based, Human
[1] = test system: LNCaP cells; test: LNCaP cell proliferation, MTS assay
Protocol: (§1) Human prostate cancer cell line, LNCaP (American Type Culture Collection (ATCC), Manassas, Va.), was grown in RPMI 1640 medium (Mediatech, Herndon, Va.) supplemented with 5% fetal bovine serum (FBS) and 5% CO2 at 37° C. until reaching approximately 50-70% confluence. The media were changed to serum-free RPMI 1640 at 24 hours prior to experiments being performed to deplete undesired steroids. […] Equivalent amounts of solvent were added to control cells.
(§2) Five days later, cell proliferation was measured by MTS assay kit (Promega, Madison, Wis.), and PSA and hK2 levels in spent media were determined by the Tandem-E PSA kit (Hybritech Inc., San Diego, Calif.) or Mayo's hK2 assay (Zhang et al., 1999, Endocrin., 140:1665-71).

[2] = test system: androgen receptor; test: Immunocytochemical staining, whole cell androgen receptor in LNCaP cells; details: Mib alone versus absence of androgens
Protocol: Twenty-four hrs later, LNCaP cell slides were washed with 1×PBS, and fixed in acetone at −20° C. for 10 min. The air-dried slides were treated with EtOH/chloroform (1:1) mixture for 5 min to permeate the cell membrane and air-dried again. The slides were washed with 1×TBST and stained with a monoclonal antibody against the human androgen receptor (Pharmingen) using a DAKO kit (DAKO). The androgen receptor staining was observed using microscopy (Zeiss, Thornwood, N.Y.). The density of androgen receptor in a nucleus (or a whole cell) and the area of the nucleus or the whole cell were quantified by KS400 software (Zeiss) provided by the Mayo Molecular Core Facility. The androgen receptor protein level in a nucleus or a whole cell was calculated by multiplication of the density of androgen receptor in the nucleus or the whole cell with the area of the nucleus or the whole cell, respectively. In each sample, 20 to 25 cells were analyzed. All results were analyzed by 2-tailed Student's t-test. A p<0.05 was accepted as the level of significance.

[3] = test system: PSA; test: PSA level in spent media of LNCaP cells (Tandem-E PSA kit); details: 1 nM Mib, five days
Protocol: as §1, §2

[4] = test system: hK2; test: hK2 level in spent media of LNCaP cells (Mayo's hK2 assay); details: 1 nM Mib, five days
Protocol: as §1, §2

[5] = test system: FKBP51; test: FKBP51 protein level, Western blot in LNCaP cells; details: 1 nM Mib, 24 hrs
Protocol: Cells were harvested and the whole cell lysate and nuclear extract were prepared as described (Zhu et al., 1999, Endocrin., 140:5451-4). Western blotting analysis was performed according to the protocol described (Id). A mouse antibody against human FKBP51 (1:5,000 dilution) (a gift from Dr. David Toft, Mayo Clinic), the human androgen receptor (1:1000 or 1:2000 dilution) (Pharmingen, San Diego, Calif.) or human Sp1 (1:2000 dilution) (Santa Cruz, Santa Cruz, Calif.) was used as the primary antibody. Ponceau S staining was used for monitoring protein loading and transfer efficiency (Mitchell et al., 1999, Cancer Res., 59:5892-5).

SMILES: C[C@@H]1CC2=CC(=O)CC[C@@H]2[C@H]2CC[C@@]3(C)[C@@H](CC[C@]3(C)O)[C@@H]21 [Mib, mibolerone, reference compound]
- LNCaP cell growth in the presence of Mib ([1]; 1 nM Mib alone): increased significantly
- androgen receptor level [2]: increased the androgen receptor level significantly

SMILES: COc1cc(C2Oc3cc([C@H]4Oc5cc(O)cc(O)c5C(=O)[C@@H]4O)ccc3OC2CO)ccc1O (some centres unmarked) [silibin]
- androgen-stimulated cell growth ([1]; 1 nM Mib, five days, MTS): inhibited
- androgen-stimulated cell growth at 75 μM ([1]; 1 nM Mib, silibin 75 μM): fully suppressed
- cell proliferation in the absence of Mib ([1]; no Mib, five days, MTS): neither silymarin or silibin affected
- PSA accumulation stimulated by androgens [3]: inhibited
- hK2 accumulation stimulated by androgens [4]: inhibited
- androgen-induced FKBP51 protein level [5]: reduced
